Measurements: ChEMBL document CHEMBL1128313, “In vitro muscarinic activity of spiromuscarones and related analogs” (J Med Chem, 1995)
Active and inactive are the calls of the source. No cut-off for these calls is given here.

species on record: Rattus norvegicus; test: The compound was tested for maximum stimulation of PI (phosphatidyl inositol) in rat hippocampal tissue, activity is expressed as percent of carbachol response; Inactive; format: functional; conditions: Hippocampus

| Structure (SMILES) | Max stimulation |
| --- | --- |
| CC1OC2(CCN(C)CC2)C2SCCSC12 (stereo unspecified) | inactive |
| CC1OC2(CCN(C)CC2)C2OCCOC12 (stereo unspecified) | inactive |

target: Muscarinic acetylcholine receptor; conditions: not given

| Structure (SMILES) | Ki |
| --- | --- |
| CC(=O)OC1COC2(CCN(C)CC2)C1 (stereo unspecified) | 98.7 µM |
| CC1CC(=O)C2(CCN(C)CC2)O1 (stereo unspecified) | 33 µM |
| CC1OC2(CCN(C)CC2)CC1O.Cl (stereo unspecified) | 430 µM |
| CCC(=O)O/N=C1\COC2(CCN(C)CC2)C1.O=C(O)/C=C\C(=O)O.O=C(O)C(=O)O | 38.1 µM |
| CC1OC2(CCN(C)CC2)C/C1=N\O (stereo unspecified) | 1.63 µM |
| CC1CC(O)C2(CCN(C)CC2)O1 (stereo unspecified) | 30 µM |
| CC1OC2(CCN(C)CC2)CC1=O (stereo unspecified) | 2.68 µM |
| CC1OC2(CCN(C)CC2)CC1O (stereo unspecified) | 141 µM |
| CC(=O)O/N=C1\COC2(CCN(C)CC2)C1.O=C(O)/C=C\C(=O)O.O=C(O)C(=O)O | 44.8 µM |
